Data published in US11731944B2, “SARS-CoV-2 inhibitors for treating coronavirus infections” (priority 2021, dated 2023).
Read-outs that look alike come from different tables or passages of the source.

Biological target: SARS-CoV-2 MPRO (Severe acute respiratory syndrome coronavirus 2 (2019-nCoV) (SARS-CoV-2), UniProt P0DTD1)
Assay: SARS-CoV-2 Mpro enzymatic assay (FRET substrate cleavage)
Format: biochemical
Conditions: 30 min pre-incubation at RT, 60 min at 30° C., 10 doses from 25 μM
[1] = C-His6-tagged SARS-CoV-2 MPRO 25 nM, read-out: M pro IC50
[2] = M pro IC50, C-His6-tagged SARS-CoV-2 MPRO 25 nM

Row | Compound | IC50 [1] | IC50 [2]
1 | C[C@](C(=O)NC1CCOC1)(c1cncnc1)N(C(=O)[C@H](F)Cl)c1ccc(OC(F)(F)F)cc1 (single isomer, unassigned) [Example 6a] | < 100 nM | 
2 | C[C@](C(=O)NC1CCOC1)(c1cncnc1)N(C(=O)[C@H](F)Cl)c1ccc(OC(F)(F)F)cc1 (single isomer, unassigned) [Example 6b] | < 100 nM | 
3 | C[C@@](C(=O)NC1CCOC1)(c1cncnc1)N(C(=O)[C@H](F)Cl)c1ccc(OC(F)(F)F)cc1 (single isomer, unassigned) [Example 6c] | 1000 to 10000 nM | 
4 | C[C@@](C(=O)NC1CCOC1)(c1cncnc1)N(C(=O)[C@H](F)Cl)c1ccc(OC(F)(F)F)cc1 (single isomer, unassigned) [Example 6d] | > 10000 nM | 
5 | Cn1ccc([C@@](C)(C(=O)NC2CCC(F)(F)CC2)N(C(=O)[C@H](F)Cl)c2ccc(OC(F)(F)F)cc2)cc1=O (single isomer, unassigned) [Example 13b] |  | > 10000 nM
6 | C[C@](C(=O)NC1CCC(F)(F)CC1)(c1cncnc1)N(C(=O)[C@H](F)Cl)c1ccc(SC(F)(F)F)cc1 (single isomer, unassigned) [Example 33a] |  | < 100 nM
7 | CC1(C)COCC[C@H]1NC(=O)[C@](C)(c1cncnc1)N(C(=O)[C@H](F)Cl)c1ccc(OC(F)(F)F)cc1 (single isomer, unassigned) [Example 76c] |  | > 10000 nM
8 | CC1(C)COCC[C@@H]1NC(=O)[C@](C)(c1cncnc1)N(C(=O)[C@H](F)Cl)c1ccc(OC(F)(F)F)cc1 (single isomer, unassigned) [Example 76d] |  | > 10000 nM
9 | CC1(C)C[C@H](NC(=O)[C@@](C)(c2cncnc2)N(C(=O)[C@H](F)Cl)c2ccc(OC(F)(F)F)cc2)CCO1 (single isomer, unassigned) [Example 77a] | < 100 nM | 
10 | CC1(C)C[C@H](NC(=O)[C@](C)(c2cncnc2)N(C(=O)[C@H](F)Cl)c2ccc(OC(F)(F)F)cc2)CCO1 (single isomer, unassigned) [Example 77c] |  | 1000 to 10000 nM
11 | CC1(C)C[C@@H](NC(=O)[C@](C)(c2cncnc2)N(C(=O)[C@H](F)Cl)c2ccc(OC(F)(F)F)cc2)CCO1 (single isomer, unassigned) [Example 77d] |  | > 10000 nM
12 | C[C@@](C(=O)NC1CCC2(CC1)COC2)(c1cncnc1)N(C(=O)[C@H](F)Cl)c1ccc(OC(F)(F)F)cc1 (single isomer, unassigned) [Example 107b] |  | > 10000 nM
13 | CC(C(=O)N[C@H]1CC[C@H](OC(F)(F)F)CC1)(c1cncnc1)N(C(=O)[C@H](F)Cl)c1ccc(OC(F)(F)F)cc1 (stereo in doubt) [Example 8] |  | < 100 nM
14 | C[C@@](C(=O)NC1CCC(F)(F)CC1)(c1cncnc1)N(C(=O)[C@H](F)Cl)c1ccc(-c2cncs2)cc1 [Example 1b] | 1000 to 10000 nM | 
15 | C[C@](C(=O)NC1CCC(F)(F)CC1)(c1cncnc1)N(C(=O)[C@H](F)Cl)c1ccc(-c2ccno2)cc1 [Example 2a] | < 100 nM | 
16 | C[C@@](C(=O)NC1CCC(F)(F)CC1)(c1cncnc1)N(C(=O)[C@H](F)Cl)c1ccc(-c2ccno2)cc1 [Example 2b] | 1000 to 10000 nM | 
17 | [2H][C@](C(=O)NC1CCC(F)(F)CC1)(c1cncnc1)N(C(=O)[C@H](F)Cl)c1ccc(OC(F)(F)F)cc1 [Example 3a] | < 100 nM | 
18 | [2H][C@@](C(=O)NC1CCC(F)(F)CC1)(c1cncnc1)N(C(=O)[C@H](F)Cl)c1ccc(OC(F)(F)F)cc1 [Example 3b] | > 10000 nM | 
19 | C[C@](C(=O)NC1CCC(F)(F)CC1)(c1cncnc1)N(C(=O)[C@H](F)Cl)c1ccc(OC(F)(F)F)cc1 [Example 4a] | < 100 nM | 
20 | C[C@@](C(=O)NC1CCC(F)(F)CC1)(c1cncnc1)N(C(=O)[C@H](F)Cl)c1ccc(OC(F)(F)F)cc1 [Example 4b] | 1000 to 10000 nM | 

Row | Compound | IC50 [1] | IC50 [2]
21 | C[C@](C(=O)NC1CCOCC1)(c1cncnc1)N(C(=O)[C@H](F)Cl)c1ccc(OC(F)(F)F)cc1 [Example 5a] | < 100 nM | 
22 | C[C@@](C(=O)NC1CCOCC1)(c1cncnc1)N(C(=O)[C@H](F)Cl)c1ccc(OC(F)(F)F)cc1 [Example 5b] | 1000 to 10000 nM | 
23 | C[C@](C(=O)NC1CCC(F)(F)CC1)(c1cncc(F)c1)N(C(=O)[C@H](F)Cl)c1ccc(OC(F)(F)F)cc1 [Example 11a] |  | < 100 nM
24 | C[C@@](C(=O)NC1CCC(F)(F)CC1)(c1cncc(F)c1)N(C(=O)[C@H](F)Cl)c1ccc(OC(F)(F)F)cc1 [Example 11b] |  | 1000 to 10000 nM
25 | Cn1ccc([C@](C)(C(=O)NC2CCC(F)(F)CC2)N(C(=O)[C@H](F)Cl)c2ccc(OC(F)(F)F)cc2)cc1=O [Example 13a] | > 10000 nM | 
26 | C[C@](C(=O)NC1CCOCC1)(c1cncc(F)c1)N(C(=O)[C@H](F)Cl)c1ccc(OC(F)(F)F)cc1 [Example 14a] | < 100 nM | 
27 | C[C@@](C(=O)NC1CCOCC1)(c1cncc(F)c1)N(C(=O)[C@H](F)Cl)c1ccc(OC(F)(F)F)cc1 [Example 14b] | > 10000 nM | 
28 | C[C@](C(=O)NC1CC(F)(F)C1)(c1cncnc1)N(C(=O)[C@H](F)Cl)c1ccc(OC(F)(F)F)cc1 [Example 18a] | < 100 nM | 
29 | C[C@@](C(=O)NC1CC(F)(F)C1)(c1cncnc1)N(C(=O)[C@H](F)Cl)c1ccc(OC(F)(F)F)cc1 [Example 18b] | 1000 to 10000 nM | 
30 | C[C@](C(=O)NC1CCC(F)(F)CC1)(c1cncnc1)N(C(=O)[C@H](F)Cl)c1ccc(S(F)(F)(F)(F)F)cc1 [Example 22a] | < 100 nM | 
31 | C[C@@](C(=O)NC1CCC(F)(F)CC1)(c1cncnc1)N(C(=O)[C@H](F)Cl)c1ccc(S(F)(F)(F)(F)F)cc1 [Example 22b] | 1000 to 10000 nM | 
32 | C[C@](C(=O)NC1CCOCC1)(c1cncnc1)N(C(=O)[C@H](F)Cl)c1ccc(S(F)(F)(F)(F)F)cc1 [Example 23a] | 1000 to 10000 nM | 
33 | C[C@@](C(=O)NC1CCOCC1)(c1cncnc1)N(C(=O)[C@H](F)Cl)c1ccc(S(F)(F)(F)(F)F)cc1 [Example 23b] | < 100 nM | 
34 | C[C@](C(=O)NC1CCC(F)(F)CC1)(c1cncnc1)N(C(=O)[C@H](F)Cl)c1ccc(OC(F)(F)F)cc1F [Example 26a] |  | 100 to 1000 nM
35 | C[C@@](C(=O)NC1CCC(F)(F)CC1)(c1cncnc1)N(C(=O)[C@H](F)Cl)c1ccc(OC(F)(F)F)cc1F [Example 26b] |  | 1000 to 10000 nM
36 | C[C@](C(=O)NC1CCOCC1)(c1cncnc1)N(C(=O)[C@H](F)Cl)c1ccc(OC(F)(F)F)cc1F [Example 27a] |  | 100 to 1000 nM
37 | C[C@](C(=O)NC1CCC(F)(F)CC1)(c1cncnc1)N(C(=O)[C@H](F)Cl)c1ccc(C2(C(F)(F)F)CC2)cc1 [Example 28a] | < 100 nM | 
38 | C[C@@](C(=O)NC1CCC(F)(F)CC1)(c1cncnc1)N(C(=O)[C@H](F)Cl)c1ccc(C2(C(F)(F)F)CC2)cc1 [Example 28b] | > 10000 nM | 
39 | C[C@](C(=O)NC1CCOCC1)(c1cncnc1)N(C(=O)[C@H](F)Cl)c1ccc(C2(C(F)(F)F)CC2)cc1 [Example 29a] | 100 to 1000 nM | 
40 | C[C@@](C(=O)NC1CCOCC1)(c1cncnc1)N(C(=O)[C@H](F)Cl)c1ccc(C2(C(F)(F)F)CC2)cc1 [Example 29b] | > 10000 nM | 

Row | Compound | IC50 [1] | IC50 [2]
41 | C[C@](C(=O)NC1CCOCC1)(c1cncnc1)N(C(=O)[C@H](F)Cl)c1ccc(OC(F)(F)C(F)(F)F)cc1 [Example 32a] |  | < 100 nM
42 | C[C@@](C(=O)NC1CCOCC1)(c1cncnc1)N(C(=O)[C@H](F)Cl)c1ccc(OC(F)(F)C(F)(F)F)cc1 [Example 32b] | 1000 to 10000 nM | 
43 | C[C@@](C(=O)NC1CCC(F)(F)CC1)(c1cncnc1)N(C(=O)[C@H](F)Cl)c1ccc(SC(F)(F)F)cc1 [Example 33b] | 100 to 1000 nM | 
44 | C[C@](C(=O)NC1CCOCC1)(c1cncnc1)N(C(=O)[C@H](F)Cl)c1ccc(SC(F)(F)F)cc1 [Example 34a] | < 100 nM | 
45 | C[C@@](C(=O)NC1CCOCC1)(c1cncnc1)N(C(=O)[C@H](F)Cl)c1ccc(SC(F)(F)F)cc1 [Example 34b] | > 10000 nM | 
46 | C[C@](C(=O)NCCc1cccc(F)c1)(c1cncnc1)N(C(=O)[C@H](F)Cl)c1ccc(OC(F)(F)F)cc1 [Example 36a] | < 100 nM | 
47 | C[C@@](C(=O)NCCc1cccc(F)c1)(c1cncnc1)N(C(=O)[C@H](F)Cl)c1ccc(OC(F)(F)F)cc1 [Example 36b] | > 10000 nM | 
48 | CC1(C)COCC[C@H]1NC(=O)[C@@](C)(c1cncnc1)N(C(=O)[C@H](F)Cl)c1ccc(OC(F)(F)F)cc1 [Example 76a] | < 100 nM | 
49 | CC1(C)COCC[C@@H]1NC(=O)[C@@](C)(c1cncnc1)N(C(=O)[C@H](F)Cl)c1ccc(OC(F)(F)F)cc1 [Example 76b] | 100 to 1000 nM | 
50 | CC1(C)C[C@@H](NC(=O)[C@@](C)(c2cncnc2)N(C(=O)[C@H](F)Cl)c2ccc(OC(F)(F)F)cc2)CCO1 [Example 77b] | < 100 nM | 
51 | C[C@](C(=O)NC1CCC(F)(F)CC1)(c1cncnc1)N(C(=O)[C@H](F)Cl)c1ccc(OC(F)(F)C(F)(F)F)cc1 [Example 90a] | < 100 nM | 
52 | C[C@@](C(=O)NC1CCC(F)(F)CC1)(c1cncnc1)N(C(=O)[C@H](F)Cl)c1ccc(OC(F)(F)C(F)(F)F)cc1 [Example 90b] | 100 to 1000 nM | 
53 | C[C@](C(=O)NC1CCC(F)(F)CC1)(c1cncnc1)N(C(=O)[C@H](F)Cl)c1ccc(OC(F)(F)Cl)cc1 [Example 92a] | < 100 nM | 
54 | C[C@@](C(=O)NC1CCC(F)(F)CC1)(c1cncnc1)N(C(=O)[C@H](F)Cl)c1ccc(OC(F)(F)Cl)cc1 [Example 92b] | 100 to 1000 nM | 
55 | C[C@](C(=O)NC1CCC(F)(F)CC1)(c1cncc(F)c1)N(C(=O)[C@H](F)Cl)c1ccc(SC(F)(F)F)cc1 [Example 95a] | < 100 nM | 
56 | C[C@@](C(=O)NC1CCC(F)(F)CC1)(c1cncc(F)c1)N(C(=O)[C@H](F)Cl)c1ccc(SC(F)(F)F)cc1 [Example 95b] | 1000 to 10000 nM | 
57 | C[C@](C(=O)NC1CCOCC1)(c1cncc(F)c1)N(C(=O)[C@H](F)Cl)c1ccc(S(F)(F)(F)(F)F)cc1 [Example 97a] | < 100 nM | 
58 | C[C@@](C(=O)NC1CCOCC1)(c1cncc(F)c1)N(C(=O)[C@H](F)Cl)c1ccc(S(F)(F)(F)(F)F)cc1 [Example 97b] | > 10000 nM | 
59 | C[C@](C(=O)NC1CCOCC1)(c1cncc(F)c1)N(C(=O)[C@H](F)Cl)c1ccc(OC(F)(F)Cl)cc1 [Example 98a] | < 100 nM | 
